Common to all, as to assay type: cell-based
The target in one test is T1, rat TRPM8 channel (Rattus norvegicus, UniProt Q8R455).
T1 construct: expressed in transfected cells; host or cells: HEK-293
The experiment in a line: Inhibition of icilin-induced [Ca2+]i elevation in TRPM8-HEK-293 cells. The following applies: 5-min preincubation, against icilin 0.25 μM. As to the method:
(§1) Assays of TRP-mediated elevation of intracellular [Ca^2+] were performed as previously described. In the current study we have used wild-type HEK293 cells, cells stably expressing rat TRPA1 or human TRPV1 or rat TRPM8. HEK-293 cells stably over-expressing recombinant rat TRPA1, rat TRPM8 or human TRPV1 were selected by G-418 (Geneticin; 600 μg·mL^−1), grown on 100 mm diameter Petri dishes as monolayers in minimum essential medium supplemented with non-essential amino acids, 10% fetal bovine serum and 2 mM glutamine, and maintained under 5% CO2 at 37 °C. Stable expression of each channel was confirmed by real time quantitative PCR (not shown). On the day of the experiment, the cells were loaded for 1 h at 25 °C with the cytoplasmic calcium indicator Fluo-4AM (Invitrogen Carlsbad, CA, USA) 4 μM in DMSO containing 0.02% Pluronic F-127 (Invitrogen, Carlsbad, CA, USA). After loading, cells were washed twice in Tyrode’s buffer (145 mM NaCl, 2.5 mM KCl, 1.5 mM CaCl2, 1.2 mM MgCl2, 10 mM D-glucose and 10 mM HEPES, pH 7.4), re-suspended in the same buffer, and transferred to the quartz cuvette of the spectrofluorimeter (λex = 488 nm; λem = 516 nm) (Perkin-Elmer LS50B equipped with PTP-1 Fluorescence Peltier System; Perkin-Elmer Life and Analytical Sciences, Waltham, MA, USA) under continuous stirring. About 100,000 cells were used for each data point. Experiments were carried out at 22 °C by measuring cell fluorescence before and after the addition of various concentrations of test compounds. The values of the effect on [Ca^2+]i in wild-type (i.e., not transfected with any construct) HEK-293 cells were taken as baselines and subtracted from the values obtained from transfected cells. The potency of test compounds (EC50 values) was determined as the concentration of test substances required to produce half-maximal increases in [Ca^2+]i. The efficacy of the agonists on TRPA1 is expressed as a percentage of the effect obtained with 100 μM allylisothiocyanate (AITC). Antagonist/desensitizing behaviour was evaluated against icilin (0.25 μM) for TRPM8 and AITC (100 μM) for TRPA1 by adding the compounds in the quartz cuvette 5 min before stimulation of cells with agonists. Data are expressed as the concentration exerting a half-maximal inhibition of agonist effect (IC50). All determinations were at least performed in triplicate. Dose-response curves were fitted by a sigmoidal regression with variable slope. Curve fitting and parameter estimation were performed with GraphPad Prism (GraphPad Software Inc., San Diego, CA, USA).

Test [1] has as its target T2, rat TRPA1 channel (Rattus norvegicus, UniProt Q6RI86).
T2 construct: expressed in transfected cells; host or cells: HEK-293
The experiment in a line: TRPA1 activation, fluorometric intracellular [Ca2+]i in TRPA1-HEK293 cells. The following applies: for Efficacy TRPA1 (% AITC 100 μM) / EC50: rat TRPA1-HEK293 cells; for EC50: read-out: Potency EC50 TRPA1. As for the experimental part: as §1, with “Stable expression of each channel was confirmed by real time quantitative PCR (not shown).” left out

Test [2] concerns the target T2, rat TRPA1 channel. As to the kind of experiment: TRPA1 desensitization/inhibition of AITC-induced [Ca2+]i elevation in TRPA1-HEK-293 cells. Conditions: 5-min preincubation, against AITC 100 μM. As to the method: as §1, with “Stable expression of each channel was confirmed by real time quantitative PCR (not shown).” left out
Test [3] has as its target T3, human recombinant TRPV1 channel (Homo sapiens, UniProt Q8NER1).
T3 construct: expressed in transfected cells; host or cells: HEK-293
The experiment in a line: Elevation of intracellular Ca2+ in HEK-293 cells stably transfected with TRPV1. The following applies: at 10 μM. As for the experimental part: Assays of TRP-mediated elevation of intracellular [Ca^2+] were performed as previously described. In the current study we have used wild-type HEK293 cells, cells stably expressing rat TRPA1 or human TRPV1 or rat TRPM8. HEK-293 cells stably over-expressing recombinant rat TRPA1, rat TRPM8 or human TRPV1 were selected by G-418 (Geneticin; 600 μg·mL^−1), grown on 100 mm diameter Petri dishes as monolayers in minimum essential medium supplemented with non-essential amino acids, 10% fetal bovine serum and 2 mM glutamine, and maintained under 5% CO2 at 37 °C. […] After loading, cells were washed twice in Tyrode’s buffer (145 mM NaCl, 2.5 mM KCl, 1.5 mM CaCl2, 1.2 mM MgCl2, 10 mM D-glucose and 10 mM HEPES, pH 7.4), re-suspended in the same buffer, and transferred to the quartz cuvette of the spectrofluorimeter (λex = 488 nm; λem = 516 nm) (Perkin-Elmer LS50B equipped with PTP-1 Fluorescence Peltier System; Perkin-Elmer Life and Analytical Sciences, Waltham, MA, USA) under continuous stirring. […] Experiments were carried out at 22 °C by measuring cell fluorescence before and after the addition of various concentrations of test compounds. […] The potency of test compounds (EC50 values) was determined as the concentration of test substances required to produce half-maximal increases in [Ca^2+]i. […] Data are expressed as the concentration exerting a half-maximal inhibition of agonist effect (IC50). […]

T1 sequence (Q8R455 whole entry): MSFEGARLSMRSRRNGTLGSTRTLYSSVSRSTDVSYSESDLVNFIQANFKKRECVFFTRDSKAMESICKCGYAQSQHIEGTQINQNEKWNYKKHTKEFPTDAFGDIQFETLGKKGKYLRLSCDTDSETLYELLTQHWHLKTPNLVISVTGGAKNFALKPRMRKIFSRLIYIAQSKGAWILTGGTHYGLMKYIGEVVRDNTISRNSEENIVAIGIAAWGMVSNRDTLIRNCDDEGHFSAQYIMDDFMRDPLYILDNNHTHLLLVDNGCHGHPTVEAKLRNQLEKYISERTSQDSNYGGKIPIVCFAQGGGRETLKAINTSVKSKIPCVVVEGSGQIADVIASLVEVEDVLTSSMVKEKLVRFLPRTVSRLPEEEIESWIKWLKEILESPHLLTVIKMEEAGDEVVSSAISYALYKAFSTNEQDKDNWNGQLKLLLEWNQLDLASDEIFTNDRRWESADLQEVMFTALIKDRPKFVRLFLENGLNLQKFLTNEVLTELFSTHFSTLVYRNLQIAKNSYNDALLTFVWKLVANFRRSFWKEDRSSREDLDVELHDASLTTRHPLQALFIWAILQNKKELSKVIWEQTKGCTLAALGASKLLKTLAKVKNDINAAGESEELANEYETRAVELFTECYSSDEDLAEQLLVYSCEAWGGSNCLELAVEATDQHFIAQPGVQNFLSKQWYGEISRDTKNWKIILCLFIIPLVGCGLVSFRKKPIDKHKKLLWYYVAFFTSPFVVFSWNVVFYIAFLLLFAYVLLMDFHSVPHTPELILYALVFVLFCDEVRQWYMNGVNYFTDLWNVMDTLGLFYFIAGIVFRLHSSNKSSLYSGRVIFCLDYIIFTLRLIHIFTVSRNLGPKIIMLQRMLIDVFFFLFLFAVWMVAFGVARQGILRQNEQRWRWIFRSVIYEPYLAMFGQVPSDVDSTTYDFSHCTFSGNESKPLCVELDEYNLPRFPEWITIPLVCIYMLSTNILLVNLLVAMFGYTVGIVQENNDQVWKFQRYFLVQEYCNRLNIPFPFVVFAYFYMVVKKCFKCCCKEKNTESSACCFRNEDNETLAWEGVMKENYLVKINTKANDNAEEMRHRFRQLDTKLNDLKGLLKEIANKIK
T2 sequence (Q6RI86 whole entry): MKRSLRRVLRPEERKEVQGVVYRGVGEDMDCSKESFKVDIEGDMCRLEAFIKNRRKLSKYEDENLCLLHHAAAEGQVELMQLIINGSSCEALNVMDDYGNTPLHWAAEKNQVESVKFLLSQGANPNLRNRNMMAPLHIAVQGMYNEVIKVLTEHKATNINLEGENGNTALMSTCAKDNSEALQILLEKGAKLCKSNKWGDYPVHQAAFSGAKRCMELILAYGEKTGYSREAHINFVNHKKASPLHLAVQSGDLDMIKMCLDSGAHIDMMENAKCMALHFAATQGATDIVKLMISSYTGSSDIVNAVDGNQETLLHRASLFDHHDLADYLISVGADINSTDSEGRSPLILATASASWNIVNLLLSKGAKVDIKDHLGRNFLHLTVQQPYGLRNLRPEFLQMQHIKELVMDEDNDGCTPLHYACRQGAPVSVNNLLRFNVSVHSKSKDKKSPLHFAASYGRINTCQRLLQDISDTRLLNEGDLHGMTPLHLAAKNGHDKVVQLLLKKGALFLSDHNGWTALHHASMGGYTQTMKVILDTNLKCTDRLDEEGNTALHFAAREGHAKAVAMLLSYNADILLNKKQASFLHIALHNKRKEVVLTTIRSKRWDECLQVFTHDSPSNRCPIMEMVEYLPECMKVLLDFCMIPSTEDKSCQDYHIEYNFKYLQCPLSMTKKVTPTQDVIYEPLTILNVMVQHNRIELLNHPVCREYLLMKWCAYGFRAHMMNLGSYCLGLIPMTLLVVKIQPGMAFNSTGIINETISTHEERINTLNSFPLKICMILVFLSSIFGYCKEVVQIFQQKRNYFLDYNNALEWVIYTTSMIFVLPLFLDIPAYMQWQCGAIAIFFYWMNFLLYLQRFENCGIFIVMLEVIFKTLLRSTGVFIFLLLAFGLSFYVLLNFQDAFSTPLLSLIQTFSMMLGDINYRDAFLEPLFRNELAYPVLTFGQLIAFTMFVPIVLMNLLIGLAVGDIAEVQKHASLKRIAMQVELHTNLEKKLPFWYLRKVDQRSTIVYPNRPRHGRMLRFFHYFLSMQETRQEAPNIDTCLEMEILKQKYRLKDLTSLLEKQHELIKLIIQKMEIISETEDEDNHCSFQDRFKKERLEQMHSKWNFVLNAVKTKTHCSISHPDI
T3 sequence (Q8NER1 whole entry): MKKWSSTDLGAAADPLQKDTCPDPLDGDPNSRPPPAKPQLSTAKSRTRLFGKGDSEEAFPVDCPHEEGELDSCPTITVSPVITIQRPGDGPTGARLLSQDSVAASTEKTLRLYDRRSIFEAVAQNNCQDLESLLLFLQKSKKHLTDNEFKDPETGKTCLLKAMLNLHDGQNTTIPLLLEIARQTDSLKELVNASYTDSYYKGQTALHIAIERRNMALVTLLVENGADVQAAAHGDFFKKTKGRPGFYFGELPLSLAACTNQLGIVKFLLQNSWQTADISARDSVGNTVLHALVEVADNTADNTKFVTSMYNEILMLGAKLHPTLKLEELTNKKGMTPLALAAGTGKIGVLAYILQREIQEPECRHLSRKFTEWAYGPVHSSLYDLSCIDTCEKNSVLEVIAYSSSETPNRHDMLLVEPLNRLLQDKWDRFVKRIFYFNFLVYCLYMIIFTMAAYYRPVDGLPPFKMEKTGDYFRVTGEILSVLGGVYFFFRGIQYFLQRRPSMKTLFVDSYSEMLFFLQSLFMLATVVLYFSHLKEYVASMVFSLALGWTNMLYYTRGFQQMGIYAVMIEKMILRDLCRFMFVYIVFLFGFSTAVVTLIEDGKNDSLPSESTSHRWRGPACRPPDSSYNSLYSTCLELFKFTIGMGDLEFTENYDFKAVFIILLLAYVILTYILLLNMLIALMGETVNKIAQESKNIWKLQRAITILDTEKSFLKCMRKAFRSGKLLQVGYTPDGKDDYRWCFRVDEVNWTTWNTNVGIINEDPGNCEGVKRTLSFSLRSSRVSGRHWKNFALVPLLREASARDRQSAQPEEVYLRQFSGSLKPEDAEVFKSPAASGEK

For orientation: IC50 means the concentration that inhibits the measured activity by half. On rat TRPM8 channel, `CC(=O)N[C@H](C)[C@H](C/C=C\C/C=C\C/C=C\C/C=C\C/C=C\C/C=C\CCCCCC[C@H](OC(C)=O)[C@@H](C)NC(C)=O)OC(C)=O` [Compound 2] registered an IC50 of 44.6 ± 10.1 µM.
Same read-out and setting: then `CC(=O)N[C@H](C)[C@H](C/C=C\CC(/C=C/C=C\C/C=C\C/C=C\C/C=C\CCCCCC[C@H](OC(C)=O)[C@@H](C)NC(C)=O)OC(C)=O)OC(C)=O` (some centres unmarked) [Compound 4], with 65.7 ± 8.6 µM.
Broadly, the EC50 is the midpoint of the concentration-response curve. As for `C[C@@H](N)[C@@H](O)CCCCCCCCCCCCCCCCCCCCCCCC[C@H](O)[C@@H](C)N` [Compound 5], the IC50 against rat TRPM8 channel amounted to 6.5 ± 0.3 µM. On rat TRPA1 channel [1], the “Reduction of efficacy at TRPA1 versus parent compound 1” value was 30%, the “Efficacy TRPA1 (% AITC 100 μM)” value was found to be 69.2 ± 0.1 % AITC 100 μM and the EC50 worked out at 2.6 ± 0.1 µM. Further, the IC50 at rat TRPA1 channel [2] was 6.5 ± 0.4 µM.
`CC(=O)N[C@H](C)[C@H](CCCCCCCCCCCCCCCCCCCCCCCC[C@H](OC(C)=O)[C@@H](C)NC(C)=O)OC(C)=O` [Compound 6]: the IC50 at rat TRPM8 channel amounted to 29 ± 0.6 µM; at rat TRPA1 channel [2], 12.7 ± 0.8 µM. Besides, the “Efficacy TRPA1 (% AITC 100 μM)” value on rat TRPA1 channel [1] stood at 100.0 ± 9.7 % AITC 100 μM. On rat TRPA1 channel [1], the EC50 is 9.7 ± 3.3 µM.
The matching figures for `C[C@@H](N)[C@@H](O)C/C=C\C/C=C\C/C=C\C/C=C\C/C=C\C/C=C\CCCCCC[C@H](O)[C@@H](C)N` [Leucettamol A (1), leucettamol A]: 6.5 ± 0.3 µM, 4.7 ± 0.2 µM, 101.9 ± 12.4 % AITC 100 μM and 3.7 ± 1.7 µM.
The matching figures for `C[C@@H](N)[C@@H](O)C/C=C\CC(O)/C=C/C=C\C/C=C\C/C=C\C/C=C\CCCCCC[C@H](O)[C@@H](C)N` (some centres unmarked) [Leucettamol B (3), leucettamol B]: 6.4 ± 1 µM, 4.7 ± 0.9 µM, 103.3 ± 10.6 % AITC 100 μM and 5.9 ± 1.9 µM.
On to `COc1cc(CNC(=O)CCCC/C=C/C(C)C)ccc1O` [capsaicin], for which the “Efficacy TRPV1 (% of 4 μM ionomycin)” value in test [3] is listed as 78.6 ± 2.4 % of 4 μM ionomycin.

The record behind these values is article PMC3509527, “Leucettamols, Bifunctionalized Marine Sphingoids, Act as Modulators of TRPA1 and TRPM8 Channels” (Marine Drugs, 2012).
